Experimental data from ChEMBL document CHEMBL1155186, “O-Spiro C-aryl glucosides as novel sodium-dependent glucose co-transporter 2 (SGLT2) inhibitors” (Bioorg Med Chem Lett, 2009).

Legend:
[1] = molecular target: T1, Sodium/glucose cotransporter 2 (Homo sapiens) (UniProt P31639); conditions: 10 nM
T1 sequence (whole entry): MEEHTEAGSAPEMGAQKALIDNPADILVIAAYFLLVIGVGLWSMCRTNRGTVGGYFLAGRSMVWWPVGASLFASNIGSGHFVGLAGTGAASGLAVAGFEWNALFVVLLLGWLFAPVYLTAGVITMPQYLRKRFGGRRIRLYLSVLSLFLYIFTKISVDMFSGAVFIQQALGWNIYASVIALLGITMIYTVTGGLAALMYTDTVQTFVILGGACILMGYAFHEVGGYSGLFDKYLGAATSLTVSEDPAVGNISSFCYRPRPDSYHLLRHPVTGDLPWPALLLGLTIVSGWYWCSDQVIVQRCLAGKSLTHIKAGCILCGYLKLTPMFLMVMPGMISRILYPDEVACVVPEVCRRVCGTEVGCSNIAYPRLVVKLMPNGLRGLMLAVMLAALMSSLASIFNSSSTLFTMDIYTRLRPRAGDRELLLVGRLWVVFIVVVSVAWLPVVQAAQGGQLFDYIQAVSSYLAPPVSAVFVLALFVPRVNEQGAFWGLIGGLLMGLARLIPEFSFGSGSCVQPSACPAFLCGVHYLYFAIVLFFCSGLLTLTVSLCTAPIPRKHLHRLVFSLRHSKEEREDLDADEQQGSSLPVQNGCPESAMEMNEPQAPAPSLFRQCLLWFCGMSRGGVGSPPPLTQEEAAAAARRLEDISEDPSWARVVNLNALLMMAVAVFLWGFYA
Description: Inhibition of human SGLT2 expressed in HEK293.ETN cells assessed as methyl-alpha-D-[U-14C]glucopyranoside uptake at 10 nM by scintillation counting

[2] = molecular target: T2, Sodium/glucose cotransporter 1 (Homo sapiens) (UniProt P13866); conditions: COS-7, 10 uM
T2 sequence (whole entry): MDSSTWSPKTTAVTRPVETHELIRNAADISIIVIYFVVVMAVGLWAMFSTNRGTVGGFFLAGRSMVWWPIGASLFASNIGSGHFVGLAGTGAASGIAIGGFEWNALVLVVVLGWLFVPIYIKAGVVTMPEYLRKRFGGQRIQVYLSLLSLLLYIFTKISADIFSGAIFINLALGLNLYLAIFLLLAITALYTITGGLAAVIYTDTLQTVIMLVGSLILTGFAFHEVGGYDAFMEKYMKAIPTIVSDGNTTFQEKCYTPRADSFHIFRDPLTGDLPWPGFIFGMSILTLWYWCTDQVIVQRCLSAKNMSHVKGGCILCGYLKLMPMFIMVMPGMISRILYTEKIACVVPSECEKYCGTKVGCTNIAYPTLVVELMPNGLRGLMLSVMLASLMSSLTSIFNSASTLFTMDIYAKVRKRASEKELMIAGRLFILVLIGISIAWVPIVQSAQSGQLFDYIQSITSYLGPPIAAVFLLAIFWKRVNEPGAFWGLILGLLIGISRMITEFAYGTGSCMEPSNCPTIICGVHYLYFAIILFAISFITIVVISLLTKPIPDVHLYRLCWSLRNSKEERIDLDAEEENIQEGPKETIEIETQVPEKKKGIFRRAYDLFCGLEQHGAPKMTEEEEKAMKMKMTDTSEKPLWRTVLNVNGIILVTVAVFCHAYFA
Description: Inhibition of human SGLT1 expressed in african green monkey COS7 cells assessed as methyl-alpha-D-[U-14C]glucopyranoside uptake at 10 uM by scintillation counting

inhibition [1]: 69.7%
inhibition [2]: 72.7%
Compound: CCOc1ccc(Cc2cc([C@@H]3O[C@H](CO)[C@@H](O)[C@H](O)[C@H]3O)ccc2Cl)cc1
